Data published in ChEMBL document CHEMBL1201862, “PubChem BioAssay data set” (2004).
Active and inactive are the calls of the source.

How the values were obtained:
[1] = molecular target: T1, Sentrin-specific protease 8 (Homo sapiens, UniProt Q96LD8); type: functional;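 also: luminescence read-out of SENP8 inhibition, dose-response confirmation following an ultra-high-throughput screen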
T1 sequence (Q96LD8 whole entry): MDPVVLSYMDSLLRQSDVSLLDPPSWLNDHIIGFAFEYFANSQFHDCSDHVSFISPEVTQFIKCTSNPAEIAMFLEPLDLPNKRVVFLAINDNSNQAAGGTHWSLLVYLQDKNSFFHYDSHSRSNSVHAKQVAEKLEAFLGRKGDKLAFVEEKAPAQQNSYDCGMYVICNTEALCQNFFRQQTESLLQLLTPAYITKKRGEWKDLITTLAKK

[2] = molecular target: T2, Sentrin-specific protease 7 (Homo sapiens, UniProt Q9BQF6); type: functional;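 also: Luminescence-based dose-response confirmation of ultra-high-throughput screening hits, measuring inhibition of SENP7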
T2 sequence (Q9BQF6 whole entry): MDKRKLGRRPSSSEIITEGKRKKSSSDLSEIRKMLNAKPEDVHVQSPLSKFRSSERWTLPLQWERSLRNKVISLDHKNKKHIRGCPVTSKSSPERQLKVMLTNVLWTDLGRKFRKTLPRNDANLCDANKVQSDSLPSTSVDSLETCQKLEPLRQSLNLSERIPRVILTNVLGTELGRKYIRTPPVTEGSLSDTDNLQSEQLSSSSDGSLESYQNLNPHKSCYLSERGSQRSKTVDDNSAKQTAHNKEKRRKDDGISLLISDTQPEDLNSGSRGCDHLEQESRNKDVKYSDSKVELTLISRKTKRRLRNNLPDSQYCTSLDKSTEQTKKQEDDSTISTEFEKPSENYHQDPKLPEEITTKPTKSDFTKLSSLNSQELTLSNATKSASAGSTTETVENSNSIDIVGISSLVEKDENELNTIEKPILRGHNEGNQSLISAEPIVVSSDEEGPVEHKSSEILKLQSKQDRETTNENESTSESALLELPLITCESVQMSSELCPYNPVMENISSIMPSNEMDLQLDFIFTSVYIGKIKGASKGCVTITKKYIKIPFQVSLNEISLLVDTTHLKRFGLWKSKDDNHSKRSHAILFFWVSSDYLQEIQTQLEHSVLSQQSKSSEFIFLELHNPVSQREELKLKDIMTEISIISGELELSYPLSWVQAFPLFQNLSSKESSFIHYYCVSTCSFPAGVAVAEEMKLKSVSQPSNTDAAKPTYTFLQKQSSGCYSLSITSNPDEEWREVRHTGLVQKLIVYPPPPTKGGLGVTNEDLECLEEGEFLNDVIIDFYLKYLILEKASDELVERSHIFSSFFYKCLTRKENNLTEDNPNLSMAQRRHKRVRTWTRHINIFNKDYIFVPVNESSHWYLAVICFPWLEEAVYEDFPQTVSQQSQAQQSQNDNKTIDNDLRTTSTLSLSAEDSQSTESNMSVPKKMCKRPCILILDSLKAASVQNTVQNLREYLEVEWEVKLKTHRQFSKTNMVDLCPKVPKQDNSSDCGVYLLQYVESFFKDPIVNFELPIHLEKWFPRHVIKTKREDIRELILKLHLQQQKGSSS

[3] = molecular target: T3, Caspase-3 (Homo sapiens, UniProt P42574); type: functional;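 also: Dose-response selectivity test against caspase-3 for candidate inhibitors of sentrin-specific proteases (SENPs)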
T3 sequence (P42574 whole entry): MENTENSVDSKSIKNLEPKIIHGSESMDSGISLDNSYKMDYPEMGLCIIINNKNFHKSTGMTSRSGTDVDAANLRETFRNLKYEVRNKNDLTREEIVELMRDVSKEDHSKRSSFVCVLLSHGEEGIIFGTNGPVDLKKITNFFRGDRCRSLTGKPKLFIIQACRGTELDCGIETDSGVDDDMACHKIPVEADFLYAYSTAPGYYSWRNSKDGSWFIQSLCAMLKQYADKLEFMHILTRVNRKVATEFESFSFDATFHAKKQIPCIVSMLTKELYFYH

[4] = molecular target: T4, Sentrin-specific protease 6 (Homo sapiens, UniProt Q9GZR1); type: functional;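 also: Luminescence-based dose-response confirmatory assay of SENP6 inhibition, following up an ultra-high-throughput screen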
T4 sequence (Q9GZR1 whole entry): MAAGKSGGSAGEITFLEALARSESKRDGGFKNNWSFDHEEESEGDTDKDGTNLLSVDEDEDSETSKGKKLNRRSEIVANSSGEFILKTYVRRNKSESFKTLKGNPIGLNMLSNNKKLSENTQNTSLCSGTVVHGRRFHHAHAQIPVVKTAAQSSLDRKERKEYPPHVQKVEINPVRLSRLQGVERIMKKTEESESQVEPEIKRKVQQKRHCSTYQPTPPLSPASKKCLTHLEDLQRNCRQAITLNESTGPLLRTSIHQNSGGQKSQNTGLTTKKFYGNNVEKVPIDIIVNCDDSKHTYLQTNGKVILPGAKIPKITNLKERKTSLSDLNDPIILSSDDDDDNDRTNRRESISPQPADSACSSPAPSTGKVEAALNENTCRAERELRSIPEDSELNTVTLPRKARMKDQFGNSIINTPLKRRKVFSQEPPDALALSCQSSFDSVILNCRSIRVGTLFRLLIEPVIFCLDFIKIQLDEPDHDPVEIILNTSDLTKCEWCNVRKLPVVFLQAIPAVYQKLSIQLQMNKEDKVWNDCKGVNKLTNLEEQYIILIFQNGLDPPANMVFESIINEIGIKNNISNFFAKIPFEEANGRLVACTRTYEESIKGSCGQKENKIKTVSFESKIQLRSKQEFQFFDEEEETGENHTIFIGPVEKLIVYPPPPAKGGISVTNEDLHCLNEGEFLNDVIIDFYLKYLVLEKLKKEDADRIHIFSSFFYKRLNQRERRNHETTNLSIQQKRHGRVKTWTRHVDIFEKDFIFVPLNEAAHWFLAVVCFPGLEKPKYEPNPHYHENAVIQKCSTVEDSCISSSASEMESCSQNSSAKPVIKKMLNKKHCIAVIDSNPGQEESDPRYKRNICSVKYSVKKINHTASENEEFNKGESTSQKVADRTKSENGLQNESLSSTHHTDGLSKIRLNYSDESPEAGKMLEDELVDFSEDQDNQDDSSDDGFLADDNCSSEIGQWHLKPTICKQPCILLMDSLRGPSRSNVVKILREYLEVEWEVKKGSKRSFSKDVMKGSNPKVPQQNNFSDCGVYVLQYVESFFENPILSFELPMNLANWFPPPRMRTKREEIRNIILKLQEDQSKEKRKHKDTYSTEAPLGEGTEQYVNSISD

[5] = blockers of bursicon-stimulated LGR2 cAMP reporter – cell-based, HEK293, CRE-luciferase reporter, cherry pick, set 2, dose response (AID 743343); type: functional;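 also: transfected cells were stimulated with diluted bursicon conditioned medium after compound addition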
[6] = viability loss in HEK293 cells – cell-based, plate reader, cherry-picked samples, cytotoxicity control, dose response (AID 743446); type: functional
[7] = A549 cell cytotoxicity, dose response, cytotoxicity control, plate reader, cherry-pick, antagonist series (AID 743412); type: functional, cell-based
[8] = blockade of melanocortin 4 receptor signaling – cell-based, plate reader, cherry pick, counter-screen for LGR2 antagonist project, dose response (AID 743444); type: functional;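 also: transfected HEK 293 cells stimulated with alpha-MSH peptide; potency of inhibitors of the alpha-MSH evoked signal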
[9] = general mammalian cell viability loss – inhibitor set, cherry-pick, set 2, cytotoxicity control for miR-122 modulator project, dose response (AID 720697); type: functional, cell-based
[10] = system: HEK293; assay: EBV LMP1 TES2 canonical NF-kB signalling blockers – cell-based, HEK293, luciferase, cherry-pick, dose response (AID 588343); type: functional; conditions: Homo sapiens
[11] = molecular target: T5, Fructose-bisphosphate aldolase (Mycobacterium tuberculosis, UniProt P9WQA3); assay: Fluorescence-based biochemical high throughput dose response assay for inhibitors of the fructose-bisphosphate aldolase (FBA) of M. tuberculosis.; type: functional
T5 sequence (P9WQA3 whole entry): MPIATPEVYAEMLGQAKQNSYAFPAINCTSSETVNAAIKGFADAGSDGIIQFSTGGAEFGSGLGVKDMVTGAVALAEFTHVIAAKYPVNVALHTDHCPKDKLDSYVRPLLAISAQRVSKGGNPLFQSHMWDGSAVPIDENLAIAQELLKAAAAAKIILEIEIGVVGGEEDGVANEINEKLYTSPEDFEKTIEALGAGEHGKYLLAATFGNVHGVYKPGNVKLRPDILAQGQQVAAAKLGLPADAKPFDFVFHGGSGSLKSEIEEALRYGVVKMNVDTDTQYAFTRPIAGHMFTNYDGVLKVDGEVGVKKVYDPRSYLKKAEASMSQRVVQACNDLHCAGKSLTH

[12] = molecular target: SWI/SNF-related matrix-associated actin-dependent regulator of chromatin subfamily A member 2 (Homo sapiens, UniProt P51531); assay: Luminescence-based cell-based high throughput dose response assay to identify activators of the function of SWI/SNF related, matrix associated, actin dependent regulator of chromatin, subfamily a, member 2 (SMARCA2, BRM).; type: functional
[13] = Counterscreen for activators of the function of SWI/SNF related, matrix associated, actin dependent regulator of chromatin, subfamily a, member 2 (SMARCA2, BRM): Luminescence-based cell-based high throughput dose response assay to identify non-selective compounds using the VP16 reporter assay.; type: functional

SWI/SNF-related matrix-associated actin-dependent regulator of chromatin subfamily A member 2, sequence (P51531 whole entry): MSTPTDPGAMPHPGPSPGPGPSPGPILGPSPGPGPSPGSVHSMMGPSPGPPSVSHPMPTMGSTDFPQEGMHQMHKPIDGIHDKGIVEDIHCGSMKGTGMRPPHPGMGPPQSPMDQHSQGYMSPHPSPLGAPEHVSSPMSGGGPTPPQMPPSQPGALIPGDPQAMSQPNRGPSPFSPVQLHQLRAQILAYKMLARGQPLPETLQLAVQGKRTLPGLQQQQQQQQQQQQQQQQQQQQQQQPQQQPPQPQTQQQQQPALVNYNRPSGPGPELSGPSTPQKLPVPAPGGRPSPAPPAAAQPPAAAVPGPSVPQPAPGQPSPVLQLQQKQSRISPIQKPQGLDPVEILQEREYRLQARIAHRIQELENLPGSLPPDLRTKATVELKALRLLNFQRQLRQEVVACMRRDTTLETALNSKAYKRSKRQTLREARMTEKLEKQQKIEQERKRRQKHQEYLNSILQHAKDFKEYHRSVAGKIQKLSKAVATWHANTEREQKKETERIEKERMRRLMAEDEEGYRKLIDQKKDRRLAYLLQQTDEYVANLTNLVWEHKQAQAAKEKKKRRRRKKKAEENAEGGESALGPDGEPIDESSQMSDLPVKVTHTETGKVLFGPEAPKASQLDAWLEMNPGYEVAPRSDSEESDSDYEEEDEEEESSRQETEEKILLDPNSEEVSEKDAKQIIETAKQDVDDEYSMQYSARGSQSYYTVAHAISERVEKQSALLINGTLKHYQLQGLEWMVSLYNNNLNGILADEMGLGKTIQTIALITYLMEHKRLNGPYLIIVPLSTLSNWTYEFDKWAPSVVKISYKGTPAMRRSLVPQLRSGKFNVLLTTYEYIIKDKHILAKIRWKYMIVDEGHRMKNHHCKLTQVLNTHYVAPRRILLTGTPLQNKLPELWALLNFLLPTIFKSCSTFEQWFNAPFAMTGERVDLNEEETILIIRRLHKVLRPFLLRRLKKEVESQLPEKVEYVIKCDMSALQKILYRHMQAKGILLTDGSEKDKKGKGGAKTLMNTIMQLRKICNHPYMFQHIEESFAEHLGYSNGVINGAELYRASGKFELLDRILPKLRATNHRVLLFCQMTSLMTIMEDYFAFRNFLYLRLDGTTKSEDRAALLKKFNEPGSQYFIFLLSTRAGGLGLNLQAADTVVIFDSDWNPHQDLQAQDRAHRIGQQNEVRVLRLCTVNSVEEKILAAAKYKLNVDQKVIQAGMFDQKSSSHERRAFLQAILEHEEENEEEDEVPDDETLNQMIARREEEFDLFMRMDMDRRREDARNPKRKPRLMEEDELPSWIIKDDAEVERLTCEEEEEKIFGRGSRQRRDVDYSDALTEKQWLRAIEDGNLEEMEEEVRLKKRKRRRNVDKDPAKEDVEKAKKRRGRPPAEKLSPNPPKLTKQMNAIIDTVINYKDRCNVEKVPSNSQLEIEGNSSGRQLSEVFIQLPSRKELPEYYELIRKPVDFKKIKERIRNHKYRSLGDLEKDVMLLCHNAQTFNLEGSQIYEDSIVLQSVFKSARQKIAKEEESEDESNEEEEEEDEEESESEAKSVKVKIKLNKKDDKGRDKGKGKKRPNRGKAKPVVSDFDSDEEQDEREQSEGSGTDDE

Q: With `O=C(Nc1ccccc1)N1CC=C(c2ccc(F)cc2)CC1` as the molecule, how does the IC50 [1] read?
A: The IC50 was 86.8 µM (active).

Q: What about the IC50 [2] of the same molecule?
A: The IC50 was 14.9 µM (active).

Q: What about the IC50 [3] of the same molecule?
A: Its IC50 is 34.3 µM (active).

Q: And the IC50 [4]?
A: The IC50 was 54.5 µM (active).

Q: Which AC50 [5] does the source give for `COCC(=O)N1CCCCN2[C@H](CO)[C@H](c3ccc(-c4cccc(C)c4)cc3)[C@@H]2C1` here?
A: Its AC50 is 18 µM (active).

Q: And the AC50 [6]?
A: The AC50 was > 52 µM (inactive).

Q: What about the AC50 [7] of the same molecule?
A: Its AC50 is > 52 µM (inactive).

Q: And the AC50 [8]?
A: The AC50 was 23.6 µM (active).

Q: For `CC(C)NC(=O)N1[C@H](CO)[C@@H](c2ccccc2)[C@@H]1CN(C)C(=O)c1cccnc1`, which AC50 [9] is on record?
A: Its AC50 is 538 nM (active).

Q: For `COC(=O)/C=C/C(=O)Nc1cccc(C(F)(F)F)c1`, which AC50 [10] is on record?
A: The AC50 was 11.1 µM (active).

Q: With `O=C1C(=O)N(c2ccccc2)C(c2ccccc2)C1c1ccccc1` (configuration not stated) as the molecule, how does the IC50 [11] read?
A: The IC50 was > 9.99 µM (inactive).

Q: With `COc1ccc2nc3c(O)n(Cc4ccncc4)cnc-3c2c1` as the molecule, how does the IC50 [11] read?
A: Its IC50 is 0.97 µM (active).

Q: What does the source list for `CC/N=c1\sc(C(=O)OC)cc(=O)n1CC`?
A: EC50 [12]: > 91.2 µM (inactive); EC50 [13]: > 91.2 µM (inactive)

Q: What does the source list for `COc1ccc(NC(=O)c2ccc(-c3ccccc3Cl)o2)cc1`?
A: IC50 [1]: > 100 µM (inactive); IC50 [2]: 4.54 µM (active); IC50 [3]: 16.2 µM (active); IC50 [4]: 4.21 µM (active)

Q: Which AC50 [5] does the source give for `CSc1nc2ccc(NC(=O)c3ccccn3)cc2s1` here?
A: The AC50 was 4.16 µM (active).

Q: And the AC50 [6]?
A: The AC50 was > 52 µM (inactive).

Q: What about the AC50 [8] of the same molecule?
A: The AC50 was 5.41 µM (active).

Q: For `Cc1nc2cc(-c3cccs3)nn2c(O)c1C`, which IC50 [11] is on record?
A: The IC50 was > 3.33 µM (active).
